Assays:
[1] = tested on: TKL1 deficient strain H1764; test: Growth of TKL1 deficient strain on galactose plates containing D-xylulose; assay type: cell-based, Saccharomyces cerevisiae; conditions: 2% galactose plates
Method: The genomic library of Z. rouxii was transformed into the TKL1 deficient strain of Saccharomyces cerevisiae (H1764, see example 12) and 10,000 independent clones were obtained. We have observed that the TKL1 deficient strain H1764 is unable to grow on 2% galactose plates containing 0.3% or higher concentrations of D-xylulose (probably due to toxic concentrations of 5-carbon sugar phosphates accumulating). The independent clones were plated with 0.5% D-xylulose (synthetic complete medium with 2% galactose, 0.5% xylulose and 3% xylose lacking leucine for selection of the library plasmid) and screened for complementation of growth on these plates.

strains H1915 and H1916 = conditions: approximately 0.5 mM H2O2, 1.5 h; both strains
Method: Strains H1915 and H1916 were cultivated to logarithmic growth phase. The cells were collected and suspended into synthetic complete medium lacking histidine and uracil to an average density of OD600 20. Glucose was added to a final concentration of 20 g/l and a sample was taken immediately. The cells were incubated in a 30° C. shaker (250 rpm) for 2.5 h and the first sample was taken. Then H2O2 was added to a concentration of approximately 0.5 mM and incubation continued for an additional 1.5 h, when the second sample was taken. The OD600 was measured, cells were removed by centrifugation, and the growth medium samples were analyzed by HPLC (Waters device, Aminex HPX-87H Ion Exclusion Column, see example 17).

SMILES | D-xylulose concentration at which the strain is unable to grow [1] [%] | increase of total polyol and pentose production (strains H1915 and H1916) [fold]
O=C(CO)[C@@H](O)[C@H](O)CO [D-xylulose] | ≥ 0.3 | 
OO [hydrogen peroxide] |  | 2

— patent publication US7226761B2, “Manufacture of five-carbon sugars and sugar alcohols” (Danisco Sweeteners Oy, priority 1992, dated 2007)
